Data: patent US20260137703A1, “2-AMINO-PYRIDO[2,3-D]PYRIMIDIN-7(8H)-ONE AND 7-AMINO-1-PYRIMIDO[4,5-D]PYRIMIDIN-2(1 H)-ONE DERIVATIVES AS EGFR INHIBITORS FOR THE TREATMENT OF CANCER” (Cancer Research Technology Limited, priority 2022, published 2026)

Legend:
[1] = target: T1, Phospho-EGFR (Tyr1068) in A431 cells (Homo sapiens, UniProt P00533); assay: HTRF pEGFR/total EGFR in A431 cells with EGF stimulation; assay type: cell-based; details: ratio pEGFR/total EGFR, compound 2.5 hours then 100 ng/ml EGF 30 mins
T1 construct: endogenous in cells; host or cells: A431
Procedure, shortened: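 A431 cells were plated at 20,000 per well, allowed 24 h to adhere, then given compound for 2.5 h (0.1% DMSO final). They were then stimulated with 100 ng/ml EGF for 30 min and lysed. HTRF measured Tyr1068-phospho and total EGFR at 665/620 nm, with pEGFR/total EGFR expressed as % of the 0 μM control.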

[2] = target: T2, Phospho-EGFR (Tyr1068) in H1975 cells (Homo sapiens, UniProt P00533, L858R/T790M); assay: HTRF pEGFR/total EGFR in H1975 cells; assay type: cell-based; details: ratio pEGFR/total EGFR, compound 3 hours
T2 construct: host or cells: H1975
Procedure, shortened: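 H1975 cells (EGFR L858R/T790M) treated 3 h with compound in 0.1% DMSO, in duplicate, 24 h after plating. Lysates assayed by HTRF for pEGFR (Tyr1068) and total EGFR at 665/620 nm; values are pEGFR/total EGFR ratio as percent of 0 μM control.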

[3] = target: T3, Phospho-EGFR (Tyr1068) in H1975 C797S cells (CRISPR-edited EGFR C797S) (Homo sapiens, UniProt P00533, C797S/L858R/T790M); assay: HTRF pEGFR/total EGFR in H1975 C797S cells; assay type: cell-based; details: ratio pEGFR/total EGFR, compound 3 hours
T3 construct: host or cells: H1975 C797S (CRISPR-edited)
Procedure, shortened: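 Adhered H1975 C797S cells got compound for 3 h in duplicate at 0.1% DMSO final, then were lysed 30 min at room temperature. HTRF kits quantified phospho-EGFR (Tyr1068) and total EGFR (665/620 nm); results are pEGFR/total EGFR ratio as percent of 0 μM control.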

[4] = target: CtermHisTag-mEGFR Wild type (Homo sapiens, UniProt P00533); assay: biochemical
Sequence of CtermHisTag-mEGFR Wild type (P00533 whole entry): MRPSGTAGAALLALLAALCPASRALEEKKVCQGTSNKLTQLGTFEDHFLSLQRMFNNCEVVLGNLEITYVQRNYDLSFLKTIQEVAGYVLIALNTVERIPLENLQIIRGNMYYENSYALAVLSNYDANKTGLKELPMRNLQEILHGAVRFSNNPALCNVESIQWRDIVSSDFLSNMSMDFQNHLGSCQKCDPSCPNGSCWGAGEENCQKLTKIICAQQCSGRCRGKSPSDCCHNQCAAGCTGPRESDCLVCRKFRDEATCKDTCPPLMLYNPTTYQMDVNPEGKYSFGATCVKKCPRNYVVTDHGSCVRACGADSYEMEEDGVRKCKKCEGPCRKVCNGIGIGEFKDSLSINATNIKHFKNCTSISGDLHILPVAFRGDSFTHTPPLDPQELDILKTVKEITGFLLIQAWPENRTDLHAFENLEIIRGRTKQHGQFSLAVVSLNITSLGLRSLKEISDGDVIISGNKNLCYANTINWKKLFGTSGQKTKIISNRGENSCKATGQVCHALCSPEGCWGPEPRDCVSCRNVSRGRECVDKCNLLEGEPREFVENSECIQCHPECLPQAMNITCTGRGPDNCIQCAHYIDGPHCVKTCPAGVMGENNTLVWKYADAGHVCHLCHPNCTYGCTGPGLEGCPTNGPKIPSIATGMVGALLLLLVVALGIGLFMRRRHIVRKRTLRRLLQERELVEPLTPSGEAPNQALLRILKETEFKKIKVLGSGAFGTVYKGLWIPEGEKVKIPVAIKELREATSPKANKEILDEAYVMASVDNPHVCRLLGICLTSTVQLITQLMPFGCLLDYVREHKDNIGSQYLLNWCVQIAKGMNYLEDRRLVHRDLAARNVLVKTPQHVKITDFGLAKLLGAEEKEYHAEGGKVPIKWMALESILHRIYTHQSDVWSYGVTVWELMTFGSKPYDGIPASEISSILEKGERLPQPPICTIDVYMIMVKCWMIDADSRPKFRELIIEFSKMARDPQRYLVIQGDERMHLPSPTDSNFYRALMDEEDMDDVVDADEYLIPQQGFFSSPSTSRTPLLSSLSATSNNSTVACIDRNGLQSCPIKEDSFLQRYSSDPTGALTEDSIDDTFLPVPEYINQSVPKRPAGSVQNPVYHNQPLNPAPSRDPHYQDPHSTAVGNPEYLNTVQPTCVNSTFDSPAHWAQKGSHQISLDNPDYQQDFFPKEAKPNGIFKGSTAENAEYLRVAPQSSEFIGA

T1 sequence (P00533 25-1210): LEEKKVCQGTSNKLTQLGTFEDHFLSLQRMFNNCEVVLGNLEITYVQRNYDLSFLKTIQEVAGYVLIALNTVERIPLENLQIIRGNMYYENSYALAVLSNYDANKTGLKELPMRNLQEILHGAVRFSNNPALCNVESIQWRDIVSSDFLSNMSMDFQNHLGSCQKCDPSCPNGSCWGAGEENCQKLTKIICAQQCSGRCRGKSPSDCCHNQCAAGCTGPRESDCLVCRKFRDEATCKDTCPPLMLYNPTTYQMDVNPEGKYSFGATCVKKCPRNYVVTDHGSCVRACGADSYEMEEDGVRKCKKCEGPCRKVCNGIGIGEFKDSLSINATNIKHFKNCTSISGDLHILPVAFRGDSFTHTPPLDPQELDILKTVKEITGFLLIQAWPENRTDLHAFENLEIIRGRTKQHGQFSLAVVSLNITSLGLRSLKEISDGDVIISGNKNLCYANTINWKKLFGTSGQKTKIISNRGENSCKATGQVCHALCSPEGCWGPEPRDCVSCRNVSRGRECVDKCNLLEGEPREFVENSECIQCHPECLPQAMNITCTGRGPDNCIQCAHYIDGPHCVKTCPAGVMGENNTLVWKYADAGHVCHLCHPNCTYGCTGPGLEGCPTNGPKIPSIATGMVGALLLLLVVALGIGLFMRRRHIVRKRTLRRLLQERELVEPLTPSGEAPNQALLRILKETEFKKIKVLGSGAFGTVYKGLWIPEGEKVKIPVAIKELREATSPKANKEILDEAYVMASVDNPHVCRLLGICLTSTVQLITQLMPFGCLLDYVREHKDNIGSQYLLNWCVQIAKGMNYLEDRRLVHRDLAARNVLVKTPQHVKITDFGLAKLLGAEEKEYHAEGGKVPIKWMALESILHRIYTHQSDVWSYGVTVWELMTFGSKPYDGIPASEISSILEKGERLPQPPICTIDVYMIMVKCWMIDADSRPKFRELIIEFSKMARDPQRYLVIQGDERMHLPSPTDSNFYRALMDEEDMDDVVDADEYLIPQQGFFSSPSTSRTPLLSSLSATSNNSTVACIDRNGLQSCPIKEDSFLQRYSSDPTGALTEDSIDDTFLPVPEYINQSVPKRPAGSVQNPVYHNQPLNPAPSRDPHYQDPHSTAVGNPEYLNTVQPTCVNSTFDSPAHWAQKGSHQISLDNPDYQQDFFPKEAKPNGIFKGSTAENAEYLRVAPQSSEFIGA
T3 sequence (P00533 25-1210 T790M/C797S/L858R): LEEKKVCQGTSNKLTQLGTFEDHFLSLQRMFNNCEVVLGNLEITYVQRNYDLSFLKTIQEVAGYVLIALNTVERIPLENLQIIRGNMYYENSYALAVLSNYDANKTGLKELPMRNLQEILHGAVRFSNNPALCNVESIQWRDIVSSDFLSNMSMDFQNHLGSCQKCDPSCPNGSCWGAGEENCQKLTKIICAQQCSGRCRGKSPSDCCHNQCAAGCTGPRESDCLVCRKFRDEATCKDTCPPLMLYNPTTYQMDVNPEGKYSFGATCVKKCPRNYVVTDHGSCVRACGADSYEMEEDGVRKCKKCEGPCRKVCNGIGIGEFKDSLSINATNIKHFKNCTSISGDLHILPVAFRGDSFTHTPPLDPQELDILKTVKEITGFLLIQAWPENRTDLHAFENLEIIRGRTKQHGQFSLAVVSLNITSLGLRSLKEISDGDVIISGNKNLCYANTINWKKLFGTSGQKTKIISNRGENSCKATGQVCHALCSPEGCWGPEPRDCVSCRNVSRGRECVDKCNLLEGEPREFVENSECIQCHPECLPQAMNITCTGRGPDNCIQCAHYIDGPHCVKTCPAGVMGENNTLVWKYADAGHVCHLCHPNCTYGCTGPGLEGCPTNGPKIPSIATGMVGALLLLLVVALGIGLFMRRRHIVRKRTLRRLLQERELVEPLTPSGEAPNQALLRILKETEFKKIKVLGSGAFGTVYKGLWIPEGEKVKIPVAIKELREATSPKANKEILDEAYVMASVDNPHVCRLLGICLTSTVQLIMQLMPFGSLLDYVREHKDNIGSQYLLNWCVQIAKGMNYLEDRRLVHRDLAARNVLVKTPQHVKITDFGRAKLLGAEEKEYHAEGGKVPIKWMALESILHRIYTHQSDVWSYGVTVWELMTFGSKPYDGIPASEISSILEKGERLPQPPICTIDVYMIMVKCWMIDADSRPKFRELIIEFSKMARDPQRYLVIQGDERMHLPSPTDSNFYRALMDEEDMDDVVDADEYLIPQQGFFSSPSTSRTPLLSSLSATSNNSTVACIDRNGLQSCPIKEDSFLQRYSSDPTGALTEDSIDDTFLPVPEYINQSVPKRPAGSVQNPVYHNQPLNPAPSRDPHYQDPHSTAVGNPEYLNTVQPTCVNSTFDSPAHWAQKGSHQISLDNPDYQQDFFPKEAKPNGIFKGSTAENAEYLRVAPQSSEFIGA
T2 sequence (P00533 25-1210 T790M/L858R): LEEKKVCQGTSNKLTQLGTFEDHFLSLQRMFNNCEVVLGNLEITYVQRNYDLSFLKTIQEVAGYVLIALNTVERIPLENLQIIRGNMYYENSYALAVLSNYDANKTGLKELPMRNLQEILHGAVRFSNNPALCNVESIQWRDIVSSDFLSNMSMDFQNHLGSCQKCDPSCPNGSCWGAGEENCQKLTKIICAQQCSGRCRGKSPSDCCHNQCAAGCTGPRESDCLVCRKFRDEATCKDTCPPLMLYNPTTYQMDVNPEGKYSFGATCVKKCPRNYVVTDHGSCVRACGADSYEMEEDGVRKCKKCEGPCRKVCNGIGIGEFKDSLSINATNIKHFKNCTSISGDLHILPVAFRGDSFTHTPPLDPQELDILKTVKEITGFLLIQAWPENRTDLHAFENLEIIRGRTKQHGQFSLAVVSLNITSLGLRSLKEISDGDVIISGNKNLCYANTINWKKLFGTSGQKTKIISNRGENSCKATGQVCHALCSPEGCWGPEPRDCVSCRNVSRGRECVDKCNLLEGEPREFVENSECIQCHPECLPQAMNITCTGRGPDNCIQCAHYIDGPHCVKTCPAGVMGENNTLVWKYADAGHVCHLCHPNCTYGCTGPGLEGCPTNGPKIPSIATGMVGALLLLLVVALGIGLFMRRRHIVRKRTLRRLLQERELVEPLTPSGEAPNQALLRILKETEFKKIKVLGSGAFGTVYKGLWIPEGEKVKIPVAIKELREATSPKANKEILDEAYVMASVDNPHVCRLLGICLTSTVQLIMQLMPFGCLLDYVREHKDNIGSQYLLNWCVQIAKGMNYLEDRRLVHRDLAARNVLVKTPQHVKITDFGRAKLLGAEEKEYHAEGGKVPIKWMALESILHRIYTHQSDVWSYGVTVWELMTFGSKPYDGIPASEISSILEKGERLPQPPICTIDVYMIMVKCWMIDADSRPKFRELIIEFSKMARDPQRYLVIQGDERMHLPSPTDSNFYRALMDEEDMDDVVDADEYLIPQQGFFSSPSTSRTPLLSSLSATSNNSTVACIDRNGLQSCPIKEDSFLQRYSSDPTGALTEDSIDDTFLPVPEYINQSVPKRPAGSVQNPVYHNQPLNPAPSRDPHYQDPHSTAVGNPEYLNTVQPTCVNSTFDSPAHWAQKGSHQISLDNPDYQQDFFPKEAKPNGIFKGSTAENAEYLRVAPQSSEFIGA

IC50 [1] [nM] | IC50 [2] [nM] | IC50 [3] [nM] | IC50 [4] [nM] | SMILES
1000 to 3000 | < 500 | < 500 | < 1000 | C#Cc1cc(=O)n(C)c2nc(Nc3ccc(N4CCN(C)CC4)c(OCCC(C)C)c3)ncc12 [Example 216, 5-Ethynyl-2-((3-(isopentyloxy)-4-(4-methylpiperazin-1-yl)phenyl)amino)-8-methylpyrido[2,3-d]pyrimidin-7(8H)-one]
1000 to 3000 | < 500 | < 500 | < 1000 | C#Cc1cc(=O)n(C)c2nc(Nc3ccc(N4CCN(C)CC4)c(NC(=O)CC4CCCC4)c3)ncc12 [Example 217, 2-Cyclopentyl-N-(5-((5-ethynyl-8-methyl-7-oxo-7,8-dihydropyrido[2,3-d]pyrimidin-2-yl)amino)-2-(4-methylpiperazin-1-yl)phenyl)acetamide]
> 3000 | 1000 to 3000 | > 3000 | < 1000 | C#Cc1cc(=O)n(C)c2nc(Nc3ccc(N4CCN(C)CC4)c(S(=O)(=O)NCC4CCCC4)c3)ncc12 [Example 218]
> 3000 | 500 to 1000 | 500 to 1000 | < 1000 | C#Cc1cc(=O)n(C)c2nc(Nc3ccc(N4CCN(C)CC4)c(NC(=O)NC4CCCC4)c3)ncc12 [Example 219, 3-Cyclopentyl-1-[5-({5-ethynyl-8-methyl-7-oxopyrido[2,3-d]pyrimidin-2-yl}amino)-2-(4-methylpiperazin-1-yl)phenyl]urea]
1000 to 3000 | < 500 | < 500 | < 1000 | C#Cc1cc(=O)n(C)c2nc(Nc3ccc(N4CCN(C)CC4)c(OCCc4ccnn4C)c3)ncc12 [Example 220, 5-Ethynyl-8-methyl-2-((3-(2-(1-methyl-1H-pyrazol-5-yl)ethoxy)-4-(4-methylpiperazin-1-yl)phenyl)amino)pyrido[2,3-d]pyrimidin-7(8H)-one]
> 3000 | 500 to 1000 | 1000 to 3000 | 1000 to 10000 | C#Cc1cc(=O)n(C)c2nc(Nc3ccc(N4CCN(C)CC4)c(C(=O)NCC4CCCC4)c3)ncc12 [Example 221, N-(Cyclopentylmethyl)-5-({5-ethynyl-8-methyl-7-oxopyrido[2,3-d]pyrimidin-2-yl}amino)-2-(4-methylpiperazin-1-yl)benzamide]
1000 to 3000 | < 500 | < 500 | < 1000 | C#Cc1cc(=O)n2c3nc(ncc13)Nc1ccc(N3CCN(C)CC3)c(c1)NC(=O)CCC2 [Example 222, 1^5-ethynyl-3^4-(4-methylpiperazin-1-yl)-1^7,1^8-dihydro-2,4-diaza-1(2,8)-pyrido[2,3-d]pyrimidina-3(1,3)-benzenacyclooctaphane-1^7,5-dione]
1000 to 3000 | < 500 | < 500 | < 1000 | C#Cc1cc(=O)n2c3nc(ncc13)Nc1ccc(N3CCN(C)CC3)c(c1)CN(C)C(=O)CC2 [Example 223, 1^5-Ethynyl-5-methyl-3^4-(4-methylpiperazin-1-yl)-1^7,1^8-dihydro-2,5-diaza-1(2,8)-pyrido[2,3-d]pyrimidina-3(1,3)-benzenacyclooctaphane-1^7,6-dione]
> 3000 | > 3000 | > 3000 | > 10000 | C#Cc1cc(=O)n2c3nc(ncc13)Nc1ccc(N3CCN(C)CC3)c(c1)C(=O)NCCC2 [Example 224, 1^5-ethynyl-3^4-(4-methylpiperazin-1-yl)-1^7,1^8-dihydro-2,5-diaza-1(2,8)-pyrido[2,3-d]pyrimidina-3(1,3)-benzenacyclooctaphane-1^7,4-dione]
> 3000 | 1000 to 3000 | 1000 to 3000 | > 10000 | C#Cc1cc(=O)n2c3nc(ncc13)Nc1ccc(N3CCN(C)CC3)c(c1)N(C)C(=O)CCC2 [Example 225, 1^5-Ethynyl-4-methyl-3^4-(4-methylpiperazin-1-yl)-1^7,1^8-dihydro-2,4-diaza-1(2,8)-pyrido[2,3-d]pyrimidina-3(1,3)-benzenacyclooctaphane-1^7,5-dione]
> 3000 | < 500 | < 500 | < 1000 | C#Cc1cc(=O)n2c3nc(ncc13)Nc1ccc(N3CCN(C)CC3)c(c1)CN(C)CCC2 [Example 226, 1^5-Ethynyl-5-methyl-3^4-(4-methylpiperazin-1-yl)-1^7,1^8-dihydro-2,5-diaza-1(2,8)-pyrido[2,3-d]pyrimidina-3(1,3)-benzenacyclooctaphan-1^7-one]
> 3000 | > 3000 | > 3000 | 1000 to 10000 | C#Cc1cc(=O)n2c3nc(ncc13)Nc1ccc(N3CCN(C)CC3)c(c1)CCNC(=O)C2 [Example 227, 1^5-Ethynyl-3^4-(4-Methylpiperazin-1-yl)-1^7,1^8-dihydro-2,6-diaza-1(2,8)-pyrido[2,3-d]pyrimidina-3(1,3)-benzenacyclooctaphane-1^7,7-dione]
> 3000 | < 500 | < 500 | 1000 to 10000 | C#Cc1cc(=O)n2c3nc(ncc13)Nc1ccc(N3CCN(C)CC3)c(c1)OCCCCC2C (stereo not drawn) [Example 228, 1^5-Ethynyl-9-methyl-3^4-(4-methylpiperazin-1-yl)-1^7,1^8-dihydro-4-oxa-2-aza-1(2,8)-pyrido[2,3-d]pyrimidina-3(1,3)-benzenacyclononaphan-17-one]
< 500 | < 500 | < 500 | < 1000 | C#Cc1c(C)c(=O)n2c3nc(ncc13)Nc1ccc(N3CCN(C)CC3)c(c1)OCCCCC2 [Example 229, 1^5-Ethynyl-1^6-Methyl-3^4-(4-methylpiperazin-1-yl)-1^7,1^8-dihydro-4-oxa-2-aza-1(2,8)-pyrido[2,3-d]pyrimidina-3(1,3)-benzenacyclononaphan-1^7-one]
1000 to 3000 | < 500 | < 500 | < 1000 | C#Cc1cc(=O)n2c3nc(ncc13)Nc1ccc(N3CCN(C)CC3)c(c1)OCCCCCC2 [Example 230, 1^5-ethynyl-3^4-(4-methylpiperazin-1-yl)-1^7,1^8-dihydro-4-oxa-2-aza-1(2,8)-pyrido[2,3-d]pyrimidina-3(1,3)-benzenacyclodecaphan-1^7-one]
1000 to 3000 | < 500 | < 500 | < 1000 | C#Cc1cc(=O)n2c3nc(ncc13)Nc1ccc(N3CCN(C)CC3)c(c1)COCCCC2 [Example 231, 1^5-Ethynyl-3^4-(4-methylpiperazin-1-yl)-1^7,1^8-dihydro-5-oxa-2-aza-1(2,8)-pyrido[2,3-d]pyrimidina-3(1,3)-benzenacyclononaphan-1^7-one]
> 3000 | < 500 | < 500 | < 1000 | C#Cc1cc(=O)n2c3nc(ncc13)Nc1ccc(N3CCN(C)CC3)c(c1)OCCOCC2 [Example 232, 1^5-Ethynyl-3^4-(4-Methylpiperazin-1-yl)-1^7,1^8-dihydro-4,7-dioxa-2-aza-1(2,8)-pyrido[2,3-d]pyrimidina-3(1,3)-benzenacyclononaphan-1^7-one]
> 3000 | 1000 to 3000 | 1000 to 3000 | < 1000 | C#Cc1cc(=O)n2c3nc(ncc13)Nc1ccc(N3CCN(C)CC3)c(c1)S(=O)(=O)NCCC2 [Example 234, 1^5-Ethynyl-3^4-(4-methylpiperazin-1-yl)-1^7,1^8-dihydro-4-thia-2,5-diaza-1(2,8)-pyrido[2,3-d]pyrimidina-3(1,3)-benzenacyclooctaphan-1^7-one 4,4-dioxide]
